Values quoted from earlier work in patent publication US11648199B2 (AI Therapeutics, Inc, priority 2014, dated 2023).

How the values were obtained:
[1] = cancer patients administered temsirolimus or everolimus; cited from earlier work
[2] = clinical use; cited from earlier work

Compound | patients who may experience mild grade pulmonary toxicity [1] | lung toxicity [2]
CO[C@H]1C[C@@H]2CC[C@@H](C)[C@@](O)(O2)C(=O)C(=O)N2CCCC[C@H]2C(=O)O[C@H]([C@H](C)C[C@@H]2CC[C@@H](OCCO)[C@H](OC)C2)CC(=O)[C@H](C)/C=C(\C)[C@@H](O)[C@@H](OC)C(=O)[C@H](C)C[C@H](C)/C=C/C=C/C=C/1C [everolimus] | 10% | 
C=CC[C@@H]1/C=C(\C)C[C@H](C)C[C@H](OC)[C@H]2O[C@@](O)(C(=O)C(=O)N3CCCC[C@H]3C(=O)O[C@H](/C(C)=C/[C@@H]3CC[C@@H](O)[C@H](OC)C3)[C@H](C)[C@@H](O)CC1=O)[C@H](C)C[C@@H]2OC [tacrolimus] |  | did not show lung toxicity
CO[C@H]1C[C@@H]2CC[C@@H](C)[C@@](O)(O2)C(=O)C(=O)N2CCCC[C@H]2C(=O)O[C@H]([C@H](C)C[C@@H]2CC[C@@H](OC(=O)C(C)(CO)CO)[C@H](OC)C2)CC(=O)[C@H](C)/C=C(\C)[C@@H](O)[C@@H](OC)C(=O)[C@H](C)C[C@H](C)/C=C/C=C/C=C/1C [temsirolimus] | 10% | 
